Reference: patent US8785416B2, “Sulphated disaccharides for the treatment of neurodegenerative and/or neurovascular diseases” (Bioiberica, S.A., priority 2009, dated 2014)

How the values were obtained:
[1] = system: SH-SY5Y human neuroblastoma cells; assay: Neuroprotection against cell death induced by rotenone plus oligomycin-A (oxidative stress), LDH release; type: cell-based
Method: An oxidative stress model consists of blocking mitochondrial respiratory chain complexes I and V by means of the combination of rotenone plus oligomycin-A, respectively. As a result of the interruption of the mitochondrial respiratory chain, the cell is unable to continue producing ATP, and the free radicals are generated exceeding the capacity of the cell to neutralize them, and as a result, cell death occurs.
SH-SY5Y human neuroblastoma cells were cultured in a monolayer in 75 cm^2 flasks with a vented stopper. The culture medium used was Dulbecco's Modified Eagle's Medium (DMEM) with a high glucose content ([…]) and supplemented with 10% foetal bovine serum, 2 mM L-Glutamine, 50 IU/mL penicillin and 50 μg/mL streptomycin.
The cell cultures were maintained in an incubator at 37° C. in a humid environment, with 5% CO2 and 95% air. The culture medium was changed twice a week, performing 1:4 passages when the cells reached 70-80% confluence. To perform the passages, the cells were detached by means of their treatment with trypsin-EDTA.
For the cell viability assays, the cells were seeded in sterile 48-well plates at a density of 80,000 cells/well. The experiments were performed 24-48 hours after their seeding.
To evaluate the neuroprotective effect of the compounds, the SH-SY5Y cells were preincubated for 24 hours with the compound under study, and subsequently incubated for 24 hours with the compound under study in the presence of the toxic substances (a combination of 10 μM rotenone and 1 μM oligomycin-A); at the end of this period the cell viability was evaluated by quantifying the release of the LDH enzyme.
The assessment of this enzyme was performed by means of a commercial kit (Cytotoxicity detection kit-LDH; Roche) following the instructions of the company. The samples were colorimetrically analyzed in a plate reader (Labsystems iEMS Reader MF), using the suitable filter at 490-600 nm and obtaining the absorbance values.
The % of cell death was defined as the % of LDH released into the extracellular medium with respect to the total (sum of intra- and extracellular LDH).
Compounds Ic and Ib were studied at four concentrations (0.001, 0.003, 0.01 and 0.03 μM), chondroitin sulphate (supplied by Bioibérica, S.A.) was assayed at two concentrations (10 and 60 μM) and trolox (Sigma Aldrich) was assayed at two concentrations (30 and 300 μM). The experiment also included the baseline (SH-SY5Y cells in the absence of compound and of toxic stimulus) and the control (SH-SY5Y cells cultured in the absence of compound and in the presence of the toxic stimulus rotenone plus oligomycin).

[2] = system: SH-SY5Y human neuroblastoma cells; assay: Generation of intracellular reactive oxygen species (ROS) after hydrogen peroxide, DCFDA fluorescence; type: cell-based
From the text: To determine the production of free radicals, the fluorescent probe 2″-7″-dichlorodihydrofluorescein diacetate (DCFDA) was used, which is sensitive to the presence of free radicals, such that when the latter are intracellularly generated there is an increase of fluorescence.
When the fluorescent probe passes into the cell, intracellular esterases hydrolyze the probe, transforming it into DCFH2. Peroxidases, cytochrome C and Fe^2+ can oxidize the probe to DCF in the presence of hydrogen peroxide, and the accumulation of DCF in the cell can be measured as an increase of fluorescence at 530 nm when it is excited at 485 nm.
SH-SY5Y human neuroblastoma cells were cultured following the procedure described in Example 3.
For the fluorescence assays, the cells were seeded in 96-well plates with opaque walls at a density of 10,000 cells/well. […]
To evaluate the effects of compound Ic on the generation of ROS, the cells were incubated with increasing concentrations of compound Ic (0.01 and 0.1 μM) for 24 hours and then they were preincubated with the fluorescent probe DCFDA for 45 minutes. Subsequently, the baseline fluorescence of each well, both of the wells containing cells and compound Ic and of those containing only the cells, was quantified. […] The baseline fluorescence of each well containing compound Ic was subtracted from it in order to obtain the net fluorescence. […]

Substance: methyl 2-acetamido-2-deoxy-3-O-(β-D-glucopyranosyluronic acid)-4,6-di-O-sulpho-α-D-glucopyranoside, trisodium salt [compound Ic]
- maximum statistically significant protection against cell death (% of released LDH) induced by rotenone and oligomycin ([1]; 0.03 μM, 24 h preincubation + 24 h with 10 μM rotenone and 1 μM oligomycin-A): 47%
- protective effect compared with chondroitin sulphate and trolox ([1]; Ic, Ib at 0.001-0.03 μM vs chondroitin sulphate 10 and 60 μM, trolox 30 and 300 μM): more effective than chondroitin sulphate and than trolox
- reduction in the formation of free radicals induced by hydrogen peroxide ([2]; 0.1 μM, 24 hours incubation before 50 μM hydrogen peroxide): 40%
- ROS generated by hydrogen peroxide at 30 and 60 minutes ([2]; cells treated 24 hours with compound (0.01 and 0.1 μM) before 50 μM hydrogen peroxide): significantly reduced
